Laboratory results from paper PMC5785490, “Retinoic acid prevents immunogenicity of milk lipocalin Bos d 5 through binding to its immunodominant T-cell epitope” (Scientific Reports, 2018).
pKd: −log10 of the molar value.

Biological target: T1, Bos d 5 (bovine beta-lactoglobulin) (Bos taurus, UniProt P02754)
T1 construct: gene LGB; commercially available bovine beta-lactoglobulin (L0130, Sigma); globular protein of 162 amino acid residues
Test: intrinsic tryptophan fluorescence quenching (pH […] °C), supported by ANS displacement assay
Assay type: binding

T1 sequence (P02754 17-178): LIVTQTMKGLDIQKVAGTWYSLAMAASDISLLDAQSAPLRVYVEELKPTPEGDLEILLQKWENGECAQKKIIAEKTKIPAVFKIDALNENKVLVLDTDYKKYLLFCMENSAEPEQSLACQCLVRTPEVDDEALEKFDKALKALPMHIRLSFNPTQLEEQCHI

CC1=C(/C=C/C(C)=C/C=C/C(C)=C/C(=O)O)C(C)(C)CCC1 [RA, all trans-retinoic acid]
pKd: 5.21
